Assay [1] has as its target T1, Recombinant STAT6 protein (STAT6(W123-T658)) (Homo sapiens, UniProt P42226).
T1 construct: STAT6(W123-T658)
T1 sequence (P42226 123-658): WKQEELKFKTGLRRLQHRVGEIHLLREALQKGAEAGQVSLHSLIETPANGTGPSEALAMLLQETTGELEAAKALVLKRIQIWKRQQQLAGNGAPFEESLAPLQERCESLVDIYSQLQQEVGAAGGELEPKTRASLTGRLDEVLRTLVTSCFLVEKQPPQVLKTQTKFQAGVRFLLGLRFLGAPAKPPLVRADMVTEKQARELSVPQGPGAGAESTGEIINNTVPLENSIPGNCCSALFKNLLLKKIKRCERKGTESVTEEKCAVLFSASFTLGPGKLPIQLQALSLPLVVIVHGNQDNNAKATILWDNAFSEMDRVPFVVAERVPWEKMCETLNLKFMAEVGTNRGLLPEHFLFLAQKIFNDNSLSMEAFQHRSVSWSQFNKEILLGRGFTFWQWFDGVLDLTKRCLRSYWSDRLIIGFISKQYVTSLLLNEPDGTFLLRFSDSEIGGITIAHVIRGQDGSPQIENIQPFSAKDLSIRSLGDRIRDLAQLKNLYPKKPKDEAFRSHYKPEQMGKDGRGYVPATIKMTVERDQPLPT
Put plainly: STAT6 Fluorescence Polarization (FP) Assay. The note with it: STAT6(W123-T658) 250 nM, probe 5-FAM-ApYKPFQDLI-NH2 2 nM, 45-minute incubation. In kind it is binding. In outline:
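STAT6 (W123-T658) at 250 nM mixed with 2 nM 5-FAM-ApYKPFQDLI-NH2 probe in HEPES pH 7.4 buffer with DTT and Tween 20, 1% DMSO final. Polarization read after 45 min at room temperature; IC50 by nonlinear regression of mP versus log concentration, reported in bins A–D.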

Assay [2] addresses T2, Recombinant STAT3 protein (STAT3(G127-I722)) (Homo sapiens, UniProt P40763).
T2 construct: STAT3(G127-I722)
As to the kind of experiment: STAT3 Fluorescence Polarization (FP) Assay. The conditions noted are these: STAT3(G127-I722) 25 nM, probe 5-FAM-GpYLPQTV-NH2 2 nM, 45-minute incubation. The class given is binding. Summed up: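 STAT3(G127-I722) at 25 nM and 5-FAM-GpYLPQTV-NH2 probe at 2 nM in HEPES pH 7.4 buffer with NaCl, EDTA, Tween 20, DTT; 1% DMSO. FP read after 45 min at room temperature; IC50 by nonlinear regression of mP vs log concentration, binned A ≤100 nM to D >10 μM.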
For orientation: Polarisation of emitted light reports the rotation of a fluorescent probe.

T2 sequence (P40763 127-722, species assumed): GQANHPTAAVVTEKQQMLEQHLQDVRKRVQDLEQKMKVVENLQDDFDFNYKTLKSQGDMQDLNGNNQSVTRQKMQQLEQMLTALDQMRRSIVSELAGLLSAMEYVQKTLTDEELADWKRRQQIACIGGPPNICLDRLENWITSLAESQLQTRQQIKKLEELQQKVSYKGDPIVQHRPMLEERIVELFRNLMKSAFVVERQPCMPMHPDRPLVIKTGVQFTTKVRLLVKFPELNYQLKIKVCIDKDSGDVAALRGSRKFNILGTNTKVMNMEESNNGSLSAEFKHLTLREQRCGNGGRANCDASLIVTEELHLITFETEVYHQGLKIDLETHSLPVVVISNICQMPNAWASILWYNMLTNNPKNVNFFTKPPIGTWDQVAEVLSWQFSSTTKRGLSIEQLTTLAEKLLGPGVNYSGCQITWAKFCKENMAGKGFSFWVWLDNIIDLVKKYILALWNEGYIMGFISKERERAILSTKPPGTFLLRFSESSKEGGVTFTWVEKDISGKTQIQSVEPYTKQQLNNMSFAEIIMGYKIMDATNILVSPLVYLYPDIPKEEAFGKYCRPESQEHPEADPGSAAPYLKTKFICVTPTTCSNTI

What is called IC50 is the concentration at which inhibition is half-maximal. For `O=C(N[C@H]1C[C@@H]2C[C@@H]2C[C@H]2CC[C@@H](C(=O)N3CCOc4ncccc43)N2C1=O)c1cc2cc(C(F)P(=O)(O)O)ccc2s1` (stereo partly drawn) [Example 386, ((2-(((3S,6S,7aS,8aR,9aR)-3-(2,3-dihydro-1H-pyrido[2,3-b][1,4]oxazine-1-carbonyl)-5-oxodecahydro-1H-cyclopropa[d]pyrrolo[1,2-a]azocin-6-yl)carbamoyl)benzo[b]thiophen-5-yl)fluoromethyl)phosphonic acid], the IC50 in assay [1] was in the range of 0.3 to 3 µM; in assay [2], 1 to 10 µM.
In the same order, the values of `O=C(N[C@H]1C[C@H]2C[C@H]2C[C@H]2CC[C@@H](C(=O)NCc3c[nH]c4ncccc34)N2C1=O)c1cc2cc(C(F)(F)P(=O)(O)O)ccc2s1` [Compound 124, ((2-(((3S,6S,7aR,8aS,9aR)-3-(((1H-pyrrolo[2,3-b]pyridin-3-yl)methyl)carbamoyl)-5-oxodecahydro-1H-cyclopropa[d]pyrrolo[1,2-a]azocin-6-yl)carbamoyl)benzo[b]thiophen-5-yl)difluoromethyl)phosphonic acid] are 0.3 to 3 µM and below 0.1 µM.
The like results for “((R)-fluoro(2-(((3S,6S,7aS,8aR,9aR)-3-(3-(morpholine-4-carbonyl)azetidine-1-carbonyl)-5-oxodecahydro-1H-cyclopropa[d]pyrrolo[1,2-a]azocin-6-yl)carbamoyl)benzo[b]thiophen-5-yl)methyl)phosphonic acid or ((S)-fluoro(2-(((3S,6S,7aS,8aR,9aR)-3-(3-(morpholine-4-carbonyl)azetidine-1-carbonyl)-5-oxodecahydro-1H-cyclopropa[d]pyrrolo[1,2-a]azocin-6-yl)carbamoyl)benzo[b]thiophen-5-yl)methyl)phosphonic acid [Compound 33]” were, in that order, 3 to 30 µM and below 0.1 µM.
Consider `O=C(N[C@H]1C[C@@H]2C[C@@H]2C[C@H]2CC[C@@H](C(=O)N3CC(c4ncccn4)C3)N2C1=O)c1cc2cc(C(F)(F)P(=O)(O)O)ccc2s1` [Compound 65, (difluoro(2-(((3S,6S,7aS,8aR,9aR)-5-oxo-3-(3-(pyrimidin-2-yl)azetidine-1-carbonyl)decahydro-1H-cyclopropa[d]pyrrolo[1,2-a]azocin-6-yl)carbamoyl)benzo[b]thiophen-5-yl)methyl)phosphonic acid], for which the IC50 in assay [1] was 3 to 30 µM; in assay [2], below 0.1 µM.
For `CCOc1ccncc1C1CN(C(=O)[C@@H]2CC[C@@H]3C[C@H]4C[C@H]4C[C@H](NC(=O)c4cc5cc([C@@H](F)P(=O)(O)O)ccc5s4)C(=O)N32)C1` [Example 420, ((S)-(2-(((3S,6S,7aS,8aR,9aR)-3-(3-(4-ethoxypyridin-3-yl)azetidine-1-carbonyl)-5-oxodecahydro-1H-cyclopropa[d]pyrrolo[1,2-a]azocin-6-yl)carbamoyl)benzo[b]thiophen-5-yl)fluoromethyl)phosphonic acid], the IC50 is 3 to 30 µM in assay [1] and below 0.1 µM in assay [2].
The like results for `Cc1cccc(C2CN(C(=O)[C@@H]3CC[C@@H]4C[C@@H]5C[C@@H]5C[C@H](NC(=O)c5cc6cc([C@@H](F)P(=O)(O)O)ccc6s5)C(=O)N43)C2)n1` (single isomer, unassigned) [Example 371] were, in that order, 3 to 30 µM and below 0.1 µM.
With `COc1cc(C2CN(C(=O)[C@@H]3CC[C@@H]4C[C@H]5C[C@H]5C[C@H](NC(=O)c5cc6cc(C(F)P(=O)(O)O)ccc6s5)C(=O)N43)C2)on1` (stereo partly drawn) [Example 336, (fluoro(2-(((3S,6S,7aS,8aR,9aR)-3-(3-(3-methoxyisoxazol-5-yl)azetidine-1-carbonyl)-5-oxodecahydro-1H-cyclopropa[d]pyrrolo[1,2-a]azocin-6-yl)carbamoyl)benzo[b]thiophen-5-yl)methyl)phosphonic acid], the results for the IC50 in assay [1] and in assay [2] were 3 to 30 µM and 0.1 to 1 µM, respectively.
For `O=C(N[C@H]1C[C@@H]2C[C@@H]2C[C@H]2CC[C@@H](C(=O)N3CC(Oc4cnccn4)C3)N2C1=O)c1cc2cc(CP(=O)(O)O)ccc2s1` [Example 334, ((2-(((3S,6S,7aS,8aR,9aR)-5-oxo-3-(3-(pyrazin-2-yloxy)azetidine-1-carbonyl)decahydro-1H-cyclopropa[d]pyrrolo[1,2-a]azocin-6-yl)carbamoyl)benzo[b]thiophen-5-yl)methyl)phosphonic acid], the IC50 is above 30 µM in assay [1] and 1 to 10 µM in assay [2].
As to `CC(=O)N1CCC2C1CN2C(=O)[C@@H]1CC[C@@H]2C[C@H]3C[C@H]3C[C@H](NC(=O)c3cc4cc(C(F)P(=O)(O)O)ccc4s3)C(=O)N21` (stereo in doubt) [Example 289, ((2-(((3S,6S,7aS,8aR,9aR)-3-((1S,5S)-2-acetyl-2,6-diazabicyclo[3.2.0]heptane-6-carbonyl)-5-oxodecahydro-1H-cyclopropa[d]pyrrolo[1,2-a]azocin-6-yl)carbamoyl)benzo[b]thiophen-5-yl)fluoromethyl)phosphonic acid], the 50% inhibitory concentration (IC50) in assay [1] fell in the range of 3 to 30 µM; in assay [2], 0.1 to 1 µM.
In the same order, the values of `NC(=O)N1C[C@H](NC(=O)[C@@H]2CC[C@@H]3C[C@H]4C[C@H]4C[C@H](NC(=O)c4cc5cc(C(F)P(=O)(O)O)ccc5s4)C(=O)N32)C(F)(F)C1` (stereo partly drawn) [Example 340, ((2-(((3S,6S,7aS,8aR,9aR)-3-(((S)-1-carbamoyl-4,4-difluoropyrrolidin-3-yl)carbamoyl)-5-oxodecahydro-1H-cyclopropa[d]pyrrolo[1,2-a]azocin-6-yl)carbamoyl)benzo[b]thiophen-5-yl)fluoromethyl)phosphonic acid] are 3 to 30 µM and below 0.1 µM.
In the same order, the values of `O=C(N[C@H]1C[C@@H]2C[C@@H]2C[C@H]2CC[C@@H](C(=O)N3CCN(C(=O)[C@@H]4CCOC4)CC3)N2C1=O)c1cc2cc(C(F)(F)P(=O)(O)O)ccc2s1` [Example 7, (difluoro(2-(((3S,6S,7aS,8aR,9aR)-5-oxo-3-(4-((R)-tetrahydrofuran-3-carbonyl)piperazine-1-carbonyl)decahydro-1H-cyclopropa[d]pyrrolo[1,2-a]azocin-6-yl)carbamoyl)benzo[b]thiophen-5-yl)methyl)phosphonic acid] are 0.3 to 3 µM and 0.1 to 1 µM.
In the case of `CN(C)c1ccncc1C1CN(C(=O)[C@@H]2CC[C@@H]3C[C@H]4C[C@H]4C[C@H](NC(=O)c4cc5cc([C@H](F)P(=O)(O)O)ccc5s4)C(=O)N32)C1` (single isomer, unassigned) [Example 407], the IC50 was 3 to 30 µM in assay [1] and below 0.1 µM in assay [2].
On to `CC1(O)CCN(C2CN(C(=O)[C@@H]3CC[C@@H]4C[C@H]5C[C@H]5C[C@H](NC(=O)c5cc6cc(C(F)(F)P(=O)(O)O)ccc6s5)C(=O)N43)C2)CC1` [Compound 110, (difluoro(2-(((3S,6S,7aS,8aR,9aR)-3-(3-(4-hydroxy-4-methylpiperidin-1-yl)azetidine-1-carbonyl)-5-oxodecahydro-1H-cyclopropa[d]pyrrolo[1,2-a]azocin-6-yl)carbamoyl)benzo[b]thiophen-5-yl)methyl)phosphonic acid], for which the IC50 in assay [1] fell in the range of 3 to 30 µM; in assay [2], 0.1 to 1 µM.
In the same order, the values of `O=C(N[C@H]1C[C@@H]2C[C@@H]2C[C@H]2CC[C@@H](C(=O)N[C@H]3CN(c4nc[nH]n4)C[C@@H]3F)N2C1=O)c1cc2cc(C(F)P(=O)(O)O)ccc2s1` (stereo partly drawn) [Example 347, (fluoro(2-(((3S,6S,7aS,8aR,9aR)-3-(((3S,4S)-4-fluoro-1-(1H-1,2,4-triazol-3-yl)pyrrolidin-3-yl)carbamoyl)-5-oxodecahydro-1H-cyclopropa[d]pyrrolo[1,2-a]azocin-6-yl)carbamoyl)benzo[b]thiophen-5-yl)methyl)phosphonic acid] are 3 to 30 µM and 0.1 to 1 µM.
In the same order, the values of `CS(=O)(=O)CC1CN(C(=O)[C@@H]2CC[C@@H]3C[C@@H]4C[C@@H]4C[C@H](NC(=O)c4cc5cc(C(F)(F)P(=O)(O)O)ccc5s4)C(=O)N32)C1` [Compound 69, (difluoro(2-(((3S,6S,7aR,8aS,9aR)-3-(3-((methylsulfonyl)methyl)azetidine-1-carbonyl)-5-oxodecahydro-1H-cyclopropa[d]pyrrolo[1,2-a]azocin-6-yl)carbamoyl)benzo[b]thiophen-5-yl)methyl)phosphonic acid] are 3 to 30 µM and below 0.1 µM.
For the compound `O=C(N[C@H]1C[C@H]2C[C@H]2C[C@H]2CC[C@@H](C(=O)NCC(CO)c3cccnc3)N2C1=O)c1cc2cc(C(F)(F)P(=O)(O)O)ccc2s1` (stereo partly drawn) [Compound 123, (difluoro(2-(((3S,6S,7aR,8aS,9aR)-3-((3-hydroxy-2-(pyridin-3-yl)propyl)carbamoyl)-5-oxodecahydro-1H-cyclopropa[d]pyrrolo[1,2-a]azocin-6-yl)carbamoyl)benzo[b]thiophen-5-yl)methyl)phosphonic acid], the IC50 in assay [1] was 3 to 30 µM; in assay [2], 0.1 to 1 µM.

Values taken from patent US20250215030A1, “STAT MODULATORS AND USES THEREOF” (Recludix Pharma, Inc., priority 2022, published 2025).
